# Tests used:
# SD male rats = assay: Influences of β-elemene on blood gas when causing dyspnea of rats (abdominal aortic blood, blood-gas analyzer); type: in vivo, rat; details: BE 1.5 mg/mL
# Protocol: Preparation of a BE solution: BE reference substances were precisely weighed and dissolved by 8.8% Tween 80 solution and prepared into a BE solution having a concentration of 1.5 mg/mL.
# 12 pieces of SPF-grade SD male rats (6 weeks of age, weight: 200±25 g) were taken; and these rats were purchased from Beijing Vital River Laboratory Animal Technology Co., Ltd, production license number: SCXK (J.) 2016-0006.Animal experiments involved in the research process were approved by Ethics Committee. The feeding conditions of the experimental rats are as follows: standard illumination-dark period is 12 h, temperature is 22±1° C., and relative humidity is 60±5%.
# The rats were randomly divided into 2 groups, 6 pieces each group. The rats were adaptively fed with common fodders for one week. Then the rats were subjected to overnight fasting (12 h), and then intraperitoneally injected with chloral hydrate (10 mg/mL, 4 mL/kg) for anesthetization. After anesthetization, the two groups were respectively injected with BE and normal saline via caudal vein with an administration volume of 6 mL/kg.
# After administration, abdominal aortic blood was taken and immediately analyzed with a blood-gas analyzer.
# hemoglobin (Hb) [1] = biological target: T1, hemoglobin (Hb) (Homo sapiens, UniProt P68871+P69905); assay: Surface plasmon resonance (SPR) interaction between β-elemene and hemoglobin; type: binding; details: Hb coupled on chip, BE 0.78-100.00 μM, FIGS. 8-9
# T1 construct: purchased Sigma H7379
# T1 sequence (P69905 2-142 limits assumed): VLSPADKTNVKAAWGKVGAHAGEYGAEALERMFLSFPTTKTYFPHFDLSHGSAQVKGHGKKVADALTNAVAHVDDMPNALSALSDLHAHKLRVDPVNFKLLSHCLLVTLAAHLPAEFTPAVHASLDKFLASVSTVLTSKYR
# T1 sequence (P68871 2-147 limits assumed): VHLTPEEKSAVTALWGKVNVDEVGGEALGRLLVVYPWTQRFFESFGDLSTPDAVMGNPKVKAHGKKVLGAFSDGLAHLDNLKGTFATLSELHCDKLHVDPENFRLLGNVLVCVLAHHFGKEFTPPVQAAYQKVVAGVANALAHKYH
# Protocol: Surface plasmon resonance (SPR) technology was used to verify the interaction between β-elemene and hemoglobin. […] It is generally acknowledged that KD of binding protein to small molecules has an acceptable scope of 10^−4-10^−6M.
# (1) Preparation of a Hb solution: a proper amount of Hb was weighed precisely and prepared into a solution having a concentration of 1 mg/mL with ultrapure water, then 20-fold diluted by pH 4.5 acetic acid for further use;
# (2) PBS-P+10× was prepared into PBS-P+2.1× with ultrapure water, then a proper amount of DMSO was taken and prepared into PBS 2× containing 5% DMSO+0.1% Tween 20, and filtered for further use;
# (3) A proper amount of BE reference substances were weighed precisely and dissolved into DMSO to be prepared into 10 mM solution, then the solution was diluted with PBS-P+2.1× to a reference substance solution containing 5% DMSO; and then the reference substance solution was diluted successively by 2× PBS-P+ to 100.00 μM, 50.00 μM, 25.00 μM, 12.50 μM, 6.25 μM, 3.12 μM. 1.56 μM and 0.78 μM and vortexed for 1 min, and then filtered by 0.22 μm filter membrane for further use.
# (1) Chip activation: carboxyl (channels 1 and 2) on a chip was activated by EDC/NHS;
# (2) the channel 2 was selected and coupled to a certain amount of Hb;
# (3) the activated carboxyl not coupled to proteins on the chip was blocked by ethanolamine; […]
# hemoglobin (Hb) α-helix = biological target: T2, hemoglobin (Hb) α-helix (Homo sapiens, UniProt P68871+P69905); assay: Circular dichroism (CD) influences of β-elemene on Hb structure; details: Hb 5 μM, BE 1.00-6.25 μM, 25° C.; effect increases with BE concentration; FIG. 10
# T2 construct: purchased Sigma H7379
# T2 sequence (P69905 2-142 limits assumed): as the sequence (P69905 2-142 limits assumed) above
# T2 sequence (P68871 2-147 limits assumed): as the sequence (P68871 2-147 limits assumed) above
# Protocol: A circular dichroism spectrum technology (CD) was used to determine the influences of β-elemene on Hb structure.
# Hb mainly presents α-helix at 200-250 nm. If the α-helix structure is changed, so do the shape of CD curve at 200-250 nm. The α-helix content of Hb at 222 nm may be calculated according to the equation (1): […]
# The mean residue ellipticity (MRE) (degcm^2/dmol) is calculated according to the equation (2): […]
# where, Cp is molar concentration (mM) of Hb; n is the number of amino acid residues; l is optical path (mm).
# Preparation of a PBS solution: a proper amount of PBS buffer solution was taken and added a small amount of Tween 80, then prepared into a PBS solution containing 0.05% Tween 80.
# Preparation of a Hb solution: a proper amount of Hb was weighed precisely and added a proper amount of PBS containing 0.05% Tween 80, then prepared into Hb having a concentration of 30 μM for further use. […]
# (2) each concentration of sample was placed into a quartz sample pool from small to large (during solution exchange, the sample pool was cleaned by PBS and rinsed with the to-be-detected solution), then the sample pool was put to the sample chamber for detection in turn, and each sample was screened by spectrum for 3 times; […]
# hemoglobin (Hb) [2] = biological target: T1, hemoglobin (Hb); assay: UV absorbance of hemoglobin after interaction with sample (r value, dyspnea risk evaluation)
# Protocol: Preparation of Hb solution: a proper amount of Hb was precisely weighed and dissolved by normal saline (ultrasonic treatment for 30 s), and prepared into a solution having a concentration of 2 mg/mL.
# Preparation of a BE solution: BE reference substance is precisely weighed and dissolved by 8.8% Tween 80 solution and prepared into a solution having a concentration of 1.5 mg/mL.
# 100 μL Hb solution was added to wells of a 96-well plate, and 100 μL BE sample solution, 100 μL 8.8% Tween 80 solution or 100 μL normal saline (as blank control) were successively added to the wells added with Hb solution. Each sample was repeated with 3 wells; then the microwell plate was covered, and the mixed solution was oscillated for 5 s in an oscillator to be mixed well, standing for 10 min at 25° C. A microplate reader was used for detection, and detection conditions were as follows: spectrum scanning was performed at 37° C. and 230-400 nm with a step size of 5 nm. […]
# Where, OD is an absorbance value of a to-be-detected sample containing sesquiterpenoids in zedoary turmeric oil at a certain concentration at 280 nm after interacting with Hb; ODHb is an absorbance value of normal saline as a blank control at a wavelength of 280 nm after interacting with Hb; r is a ratio of OD to ODHb.
compound,measurement,setting,value
"C=C[C@]1(C)CC[C@@H](C(=C)C)C[C@H]1C(=C)C [BE, (1S, 2S, 4R)-1-vinyl-methyl-2,4-di(1-methylvinyl) cyclohexane]",partial pressure of arterial oxygen,"SD male rats; 6 mL/kg via caudal vein vs normal saline, FIG. 2",significantly decrease
same,arterial partial pressure of carbon dioxide,"SD male rats; 6 mL/kg via caudal vein vs normal saline, FIG. 3",significantly decreases
same,arterial blood pH,"SD male rats; 6 mL/kg via caudal vein vs normal saline, FIG. 4",no significant change
same,arterial oxygen saturation,"SD male rats; 6 mL/kg via caudal vein vs normal saline, FIG. 5",significantly decrease
same,total hemoglobin,"SD male rats; 6 mL/kg via caudal vein vs normal saline, FIG. 6",significantly increases
same,oxyhemoglobin,"SD male rats; 6 mL/kg via caudal vein vs normal saline, FIG. 7",significantly decreases
same,observed symptoms after administration,"SD male rats; 6 mL/kg via caudal vein, recovery after stopping administration",suffered dyspnea symptoms
same,Kd,hemoglobin (Hb) [1],5.84 µM
same,effect on Hb α-helix (CD curve at 200-250 nm),hemoglobin (Hb) α-helix,makes Hb α-helix performing helix removal
same,Hb absorbance within 260-300 nm,"hemoglobin (Hb) [2]; 1.5 mg/mL BE solution + 2 mg/mL Hb, 100 μL each, FIG. 11",significantly increasing
same,r (ratio of OD to ODHb at 280 nm),"hemoglobin (Hb) [2]; 1.5 mg/mL BE solution, r>1.5 indicates high risk of dyspnea",≈ 1.8
